# Experimental data published in US11274101B2, “Heterocyclic compound” (Takeda Pharmaceutical Company Limited, priority 2017, dated 2022).
# Target: T1, His-hMAGL (recombinant polyhistidine tagged human MAGL protein) (Homo sapiens, UniProt Q99685)
# T1 construct: made in house; host or cells: E. coli BL21(DE3)
# T1 sequence (Q99685 1-303): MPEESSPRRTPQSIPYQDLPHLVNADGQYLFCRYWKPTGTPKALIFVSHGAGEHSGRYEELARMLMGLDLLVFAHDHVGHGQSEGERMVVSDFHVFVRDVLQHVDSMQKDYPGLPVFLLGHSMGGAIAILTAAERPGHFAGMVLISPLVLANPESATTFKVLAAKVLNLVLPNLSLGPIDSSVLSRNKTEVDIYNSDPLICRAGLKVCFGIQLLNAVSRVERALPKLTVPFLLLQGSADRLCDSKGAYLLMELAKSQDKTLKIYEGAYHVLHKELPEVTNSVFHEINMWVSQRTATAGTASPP
# Test: Measurement of MAGL inhibitory activity (arachidonic acid production from 2-arachidonylglycerol, RapidFire-mass spectrometry)
# Type: biochemical
# Details: test compound 10 μM; MAGL inhibitory rate
# Experimental: The His-hMAGL obtained above was diluted with enzyme reaction buffer (10 mM Tris-HCl, pH 7.5, 1 mM EDTA, 0.025 (w/v) % Triton X-100, 0.01% Bovine serum albumin) to a concentration of 7.5 ng/mL. To each well of a 384 well assay plate (Greiner 781280) was added a solution (5 μL) of a test compound dissolved in dimethyl sulfoxide (DMSO), which was diluted with the above-mentioned enzyme reaction buffer, then His-hMAGL solution (5 μL) diluted to a concentration of 7.5 ng/mL was added, and the mixture was incubated at room temperature for 60 min. Thereafter, to each well was added 5 μL of 150 μM 2-arachidonylglycerol (Tocris Bioscience), and the mixture was incubated at room temperature for 10 min. Then, 10 μL of 2% formic acid (Wako Pure Chemical Industries, Ltd.) was added to stop the reaction. Furthermore, acetonitrile (50 μL) containing 3 μM arachidonic acid-d8 (Cayman Chemical Company) was added and the mixture was stirred.
# The amount of arachidonic acid in the obtained enzyme reaction mixture was calculated by measuring by RapidFire-mass spectrometry and correcting by the amount of arachidonic acid-d8. High Throughput online solid phase extraction was performed using RapidFire 300™ system (Agilent Technologies, Inc.). Samples were loaded on SPE C4 cartridge (Agilent Technologies, Inc.) and desalted with 0.2 (v/v) % acetic acid (Wako Pure Chemical Industries, Ltd.) in ultrapure water/acetonitrile (70/30, v/v) at a flow rate of 1.5 mL/min, eluted at a flow rate of 0.5 mL/min with 0.2 (v/v) % acetic acid dissolved in acetonitrile/ultrapure water (90/10, v/v), and injected into the mass spectrometry part. The injection needle was washed with ultrapure water (500 millisecond) and acetonitrile (500 millisecond) to minimize carry-over. The suction time (injection loop 5 μL), load/cleansing time, elution time and re-equilibration time were adjusted to 300, 3000, 4250 and 1000 milliseconds, respectively, and the total cycle time was adjusted to about 10.0 seconds. The RapidFire300 system was controlled by RapidFire UI software version 3.6 (Agilent Technologies, Inc.).
# The mass spectrometry of the resultant product was performed using API4000™ triple quadrupole mass spectrometer (AB SCIEX) equipped with an electrospray ion sauce (TurboIon Spray™) in a negative selected reaction monitoring (SRM) mode. The conditions of SRM are shown below. The parameters of the instrument were optimized as follows: capillary temperature 600° C., ion spray voltage −4.5 kV, collision gas 8, curtain gas 15 psi, ion source gas 1 60 psi, ion source gas 2 60 psi. The mass spectrometer was controlled by Analyst™ software version 1.5.1 (AB SCIEX). The peak area integration was analyzed using RapidFire integrator software version 3.6 (Agilent Technologies, Inc.).
# MAGL inhibitory rate (%) was calculated according to the following calculation formula. (1-(arachidonic acid production amount of test compound addition group−arachidonic acid production amount of enzyme-free group)+(arachidonic acid production amount of test compound-free group−arachidonic acid production amount of enzyme-free group))×100
row,SMILES,inhibition at 10 µM [%]
1,"O=C1NC2(CO1)CN(C(=O)O[C@H]1C[C@H](OCc3ccccc3)C1)C2 [Example 42, trans-3-(benzyloxy)cyclobutyl 6-oxo-7-oxa-2,5-diazaspiro[3.4]octane-2-carboxylate]",99
2,"O=C1NC2(CO1)CN(C(=O)O[C@H]1C[C@H](Oc3c(F)cc(F)cc3F)C1)C2 [Example 43, trans-3-(2,4,6-fluorophenoxy)cyclobutyl 6-oxo-7-oxa-2,5-diazaspiro[3.4]octane-2-carboxylate]",102
3,"O=C1NC2(CO1)CN(C(=O)O[C@H]1C[C@@H](Oc3ccc(F)cc3Cl)C1)C2 [Example 44, cis-3-(2-chloro-4-fluorophenoxy)cyclobutyl 6-oxo-7-oxa-2,5-diazaspiro[3.4]octane-2-carboxylate]",103
4,"Cc1ccc(O[C@H]2C[C@@H](OC(=O)N3CC4(COC(=O)N4)C3)C2)cc1F [Example 45, cis-3-(3-fluoro-4-methylphenoxy)cyclobutyl 6-oxo-7-oxa-2,5-diazaspiro[3.4]octane-2-carboxylate]",98
5,"O=C1NC2(CO1)CN(C(=O)O[C@H]1C[C@@H](Oc3ccc(Cl)cc3)C1)C2 [Example 47, cis-3-(4-chlorophenoxy)cyclobutyl 6-oxo-7-oxa-2,5-diazaspiro[3.4]octane-2-carboxylate]",100
6,"O=C1NC2(CO1)CN(C(=O)O[C@H]1C[C@@H](Oc3ccc(C(F)(F)F)cc3)C1)C2 [Example 48, cis-3-(4-(trifluoromethyl)phenoxy)cyclobutyl 6-oxo-7-oxa-2,5-diazaspiro[3.4]octane-2-carboxylate]",100
7,"O=C1NC2(CO1)CN(C(=O)O[C@H]1C[C@@H](Oc3cccc(Cl)c3)C1)C2 [Example 49, cis-3-(3-chlorophenoxy)cyclobutyl 6-oxo-7-oxa-2,5-diazaspiro[3.4]octane-2-carboxylate]",100
8,"Cc1cc(O[C@H]2C[C@@H](OC(=O)N3CC4(COC(=O)N4)C3)C2)ccc1F [Example 50, cis-3-(4-fluoro-3-methylphenoxy)cyclobutyl 6-oxo-7-oxa-2,5-diazaspiro[3.4]octane-2-carboxylate]",99
9,"O=C1NC2(CO1)CN(C(=O)O[C@H]1C[C@@H](Oc3ccc(F)c(F)c3F)C1)C2 [Example 51, cis-3-(2,3,4-trifluorophenoxy)cyclobutyl 6-oxo-7-oxa-2,5-diazaspiro[3.4]octane-2-carboxylate]",99
10,"O=C1NC2(CO1)CN(C(=O)O[C@H]1C[C@@H](Oc3ccccc3Cl)C1)C2 [Example 52, cis-3-(2-chlorophenoxy)cyclobutyl 6-oxo-7-oxa-2,5-diazaspiro[3.4]octane-2-carboxylate]",100
11,"Cc1ccc(O[C@H]2C[C@@H](OC(=O)N3CC4(COC(=O)N4)C3)C2)cc1 [Example 53, cis-3-(4-methylphenoxy)cyclobutyl 6-oxo-7-oxa-2,5-diazaspiro[3.4]octane-2-carboxylate]",101
12,"O=C1NC2(CO1)CN(C(=O)O[C@H]1C[C@@H](Oc3ccc(Cl)cc3F)C1)C2 [Example 54, cis-3-(4-chloro-2-fluorophenoxy)cyclobutyl 6-oxo-7-oxa-2,5-diazaspiro[3.4]octane-2-carboxylate]",100
13,"Cc1cc(F)ccc1O[C@H]1C[C@@H](OC(=O)N2CC3(COC(=O)N3)C2)C1 [Example 55, cis-3-(4-fluoro-2-methylphenoxy)cyclobutyl 6-oxo-7-oxa-2,5-diazaspiro[3.4]octane-2-carboxylate]",100
14,"Cc1ccc(O[C@H]2C[C@@H](OC(=O)N3CC4(COC(=O)N4)C3)C2)c(F)c1 [Example 56, cis-3-(2-fluoro-4-methylphenoxy)cyclobutyl 6-oxo-7-oxa-2,5-diazaspiro[3.4]octane-2-carboxylate]",101
15,"O=C1NC2(CO1)CN(C(=O)O[C@H]1C[C@@H](Oc3cc(F)c(F)cc3F)C1)C2 [Example 57, cis-3-(2,4,5-trifluorophenoxy)cyclobutyl 6-oxo-7-oxa-2,5-diazaspiro[3.4]octane-2-carboxylate]",100
16,"C[C@]1(OC(=O)N2CC3(COC(=O)N3)C2)C[C@@H](OCc2ccccc2)C1 [Example 58, cis-3-(benzyloxy)-1-methylcyclobutyl 6-oxo-7-oxa-2,5-diazaspiro[3.4]octane-2-carboxylate]",93
17,"C[C@]1(OC(=O)N2CC3(COC(=O)N3)C2)C[C@H](OCc2ccccc2)C1 [Example 59, trans-3-(benzyloxy)-1-methylcyclobutyl 6-oxo-7-oxa-2,5-diazaspiro[3.4]octane-2-carboxylate]",99
18,"C[C@]1(OC(=O)N2CC3(COC(=O)N3)C2)C[C@@H](Oc2c(F)cc(F)cc2F)C1 [Example 60, cis-1-methyl-3-(2,4,6-trifluorophenoxy)cyclobutyl 6-oxo-7-oxa-2,5-diazaspiro[3.4]octane-2-carboxylate]",98
19,"C[C@]1(OC(=O)N2CC3(COC(=O)N3)C2)C[C@H](Oc2c(F)cc(F)cc2F)C1 [Example 61, trans-1-methyl-3-(2,4,6-trifluorophenoxy)cyclobutyl 6-oxo-7-oxa-2,5-diazaspiro[3.4]octane-2-carboxylate]",100
20,"O=C1NC2(CO1)CN(C(=O)O[C@H]1C[C@H](OCc3ccc(C(F)(F)F)cc3F)C1)C2 [Example 62, trans-3-((2-fluoro-4-(trifluoromethyl)benzyl)oxy)cyclobutyl 6-oxo-7-oxa-2,5-diazaspiro[3.4]octane-2-carboxylate]",99
21,"C[C@]1(Oc2ccc(F)cc2Cl)C[C@@H](OC(=O)N2CC3(COC(=O)N3)C2)C1 [Example 63, cis-3-(2-chloro-4-fluorophenoxy)-3-methylcyclobutyl 6-oxo-7-oxa-2,5-diazaspiro[3.4]octane-2-carboxylate]",100
